The source of these data is BindingDB's records for doi:10.1016/0960-894X(95)00199-4 (1995).

A short description of experiment [1]: Compound was evaluated for the inhibition of platelet aggregation, assessed turbidimetrically in citreated human platelet rich plasma (PRP).
Experiment [2] addresses T1, Thromboxane A2 receptor (Homo sapiens, UniProt P21731).
T1 sequence (P21731 whole entry): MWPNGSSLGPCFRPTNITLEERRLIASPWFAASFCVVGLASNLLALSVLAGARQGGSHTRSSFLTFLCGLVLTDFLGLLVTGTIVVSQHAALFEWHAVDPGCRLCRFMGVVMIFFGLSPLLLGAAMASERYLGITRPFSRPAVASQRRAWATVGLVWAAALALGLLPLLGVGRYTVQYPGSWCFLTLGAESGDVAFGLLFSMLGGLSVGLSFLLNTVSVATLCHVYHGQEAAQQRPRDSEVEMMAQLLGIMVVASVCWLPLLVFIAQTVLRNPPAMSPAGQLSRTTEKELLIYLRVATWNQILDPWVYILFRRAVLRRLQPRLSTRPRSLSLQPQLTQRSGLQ
The experiment in a line: Compound was evaluated for the inhibition of platelet aggregation, assessed turbidimetrically in citreated human platelet rich plasma (PRP).

One may read the IC50 as the point on the concentration scale where inhibition reaches its midpoint. On to `O=C(O)COCCCCC1=CCC[C@@H]1NS(=O)(=O)c1ccccc1[N+](=O)[O-]`, for which the IC50 in experiment [1] stood at 1.9 µM.
On to `O=C(O)CCC/C=C\C[C@H]1[C@H](F)CC[C@@H]1NS(=O)(=O)C1=C2N=CC=CC2CC=C1` (stereo partly drawn), for which, in experiment [2], the midpoint of inhibition, the IC50, lay at 2 µM. This counts as single-digit micromolar.
`O=C(O)COCCCC[C@H]1[C@H](F)CC[C@@H]1NS(=O)(=O)c1ccc(F)cc1F` returned an IC50 in experiment [1] of 1.8 µM.
`O=C(O)COCCCCC1=CCC[C@@H]1NS(=O)(=O)c1ccc(F)cc1F` gave an IC50 in experiment [1] of 1.8 µM.
On the same count and under the same terms, in the case of `O=C(O)CCCCCCC1=CCC[C@@H]1NS(=O)(=O)c1ccc(F)cc1` it was 0.62 µM.
On the same count and under the same terms, in the case of `O=C(O)CCC/C=C\CC1=CCC[C@@H]1NS(=O)(=O)c1ccc2ccccc2c1` it was 1.9 µM; in that of `O=C(O)COCCCCC1=CCC[C@@H]1NS(=O)(=O)c1ccccc1`, 2 µM; in that of `O=C(O)CC/C=C\C[C@H]1[C@H](F)CC[C@@H]1NS(=O)(=O)c1ccc(F)cc1`, 0.75 µM.
Still for that read-out and setting: in the case of `O=C(O)COCCCCC1=CCC[C@@H]1NS(=O)(=O)c1ccc(F)cc1` it was 2 µM.
Consider `O=C(O)COCCCCC1=CCC[C@@H]1CNS(=O)(=O)c1ccc(F)cc1`, for which, in experiment [1], the midpoint of inhibition, the IC50, lay at 0.2 µM. Against the preceding molecule, the IC50 is about 10-fold lower.
On the same count and under the same terms, in the case of `O=C(O)CCC/C=C\C[C@H]1[C@H](F)CC[C@@H]1NS(=O)(=O)c1ccccc1` it was 1.1 µM.
The same measure, in the same setting: in the case of `O=C(O)CCC/C=C\C[C@H]1[C@H](F)CC[C@@H]1NS(=O)(=O)c1ccc(Cl)c(Cl)c1` it was 0.63 µM; in that of `O=C(O)CC/C=C/C[C@H]1[C@H](F)CC[C@@H]1NS(=O)(=O)c1ccc(F)cc1F`, 1.6 µM; in that of `O=C(O)CCC/C=C\CC1=CCC[C@@H]1NS(=O)(=O)c1cccc2cccnc12`, 2 µM.
The molecule `O=C(O)CC/C=C\C[C@H]1[C@H](F)CC[C@@H]1NS(=O)(=O)c1ccc(Cl)cc1` gave an IC50 in experiment [1] of 0.21 µM.
Same read-out and setting: then `O=C(O)CCC/C=C\CC1=CCC[C@@H]1NS(=O)(=O)c1ccccc1[N+](=O)[O-]`, with 0.68 µM; and `O=C(O)CC/C=C\C[C@H]1[C@H](F)CC[C@@H]1NS(=O)(=O)c1ccccc1`, with 2 µM.
Still for that read-out and setting: in the case of `O=C(O)CC/C=C\CC1=CCC[C@@H]1CNS(=O)(=O)c1ccc(F)cc1` it was 0.6 µM; in that of `O=C(O)CCC/C=C\C[C@@H]1[C@@H](CNS(=O)(=O)c2ccc(F)cc2)CC[C@H]1F`, 2 µM; in that of `O=C(O)COCCCC[C@H]1[C@H](F)CC[C@@H]1NS(=O)(=O)c1ccccc1[N+](=O)[O-]`, 5.5 µM.
On the same count and under the same terms, then `O=C(O)COCCCCC1=CCC[C@@H]1NS(=O)(=O)c1ccc(Cl)c(Cl)c1`, with 1.9 µM.
With `O=C(O)CC/C=C\CC1=CCC[C@@H]1NS(=O)(=O)c1ccccc1[N+](=O)[O-]`, in experiment [1], half-maximal inhibition (IC50) was put at 0.6 µM.
The same measure, in the same setting: then `O=C(O)CCCCCC[C@@H]1[C@@H](CNS(=O)(=O)c2ccc(F)cc2)CC[C@H]1F`, with 6 µM; and `Cc1ccc(S(=O)(=O)N[C@H]2CCC=C2C/C=C\CCCC(=O)O)cc1`, with 0.25 µM; and `O=C(O)CC/C=C\CC1=CCC[C@@H]1NS(=O)(=O)c1ccc(F)cc1`, with 1.3 µM.
The same measure, in the same setting: then `O=C(O)CC/C=C\CC1=CCC[C@@H]1NS(=O)(=O)c1ccc(Cl)c(Cl)c1`, with 1.9 µM.
Consider `O=C(O)CC/C=C\C[C@H]1[C@H](F)CC[C@@H]1NS(=O)(=O)c1ccccc1[N+](=O)[O-]`, for which 0.56 µM corresponded to half-maximal inhibition in experiment [1] (IC50).
In turn, `O=C(O)CCC/C=C\C[C@H]1[C@H](F)CC[C@@H]1NS(=O)(=O)c1ccc(F)cc1` gave an IC50 in experiment [2] of 0.54 µM.
For `O=C(O)CCCCC[C@@H]1[C@@H](CNS(=O)(=O)c2ccc(F)cc2)CC[C@H]1F`, the IC50 in experiment [1] amounted to 4.7 µM. This counts as single-digit micromolar.
Same read-out and setting: in the case of `Cc1ccc(S(=O)(=O)N[C@H]2CC[C@@H](F)[C@@H]2CCCCOCC(=O)O)cc1` it was 1.8 µM.
On the same count and under the same terms, in the case of `O=C(O)CCC/C=C\C[C@H]1[C@H](F)CC[C@@H]1NS(=O)(=O)c1ccc(F)cc1F` it was 0.2 µM.
Turning to `O=C(O)CC/C=C\C[C@H]1[C@H](F)CC[C@@H]1NS(=O)(=O)c1ccc(Cl)c(Cl)c1`, in experiment [1], 1.7 µM corresponded to half-maximal inhibition (IC50). This IC50 is about 8.5-fold higher than that of the molecule before.
On to `O=C(O)CCCCCC[C@H]1[C@H](F)CC[C@@H]1NS(=O)(=O)c1ccc(F)cc1`, for which, in experiment [1], 2.4 µM corresponded to half-maximal inhibition (IC50).
Still for that read-out and setting: then `O=C(O)COCCCC[C@H]1[C@H](F)CC[C@@H]1NS(=O)(=O)c1ccccc1`, with 1.7 µM.
With `O=C(O)CC/C=C\CC1=CCC[C@@H]1NS(=O)(=O)c1ccc(F)cc1F`, the IC50 in experiment [1] was determined as 20 µM.
For `O=C(O)CC/C=C\C[C@@H]1[C@@H](CNS(=O)(=O)c2ccc(F)cc2)CC[C@H]1F`, the IC50 in experiment [2] stood at 1.9 µM.
Consider `O=C(O)CCC/C=C\C[C@H]1[C@H](F)CC[C@@H]1NS(=O)(=O)c1ccc2ccccc2c1`, for which 0.2 µM corresponded to half-maximal inhibition in experiment [1] (IC50).
On the same count and under the same terms, then `O=C(O)CCC/C=C\CC1=CCC[C@@H]1CNS(=O)(=O)c1ccc(F)cc1`, with 1.7 µM.
In turn, `O=C(O)CC/C=C\CC1=CCC[C@@H]1NS(=O)(=O)c1ccc(Cl)cc1` yielded an IC50 in experiment [1] of 1.9 µM.
In experiment [1], `O=C(O)CCC/C=C\C[C@H]1[C@H](F)CC[C@@H]1NS(=O)(=O)c1ccccc1[N+](=O)[O-]` showed an IC50 of 1.8 µM.
Still for that read-out and setting: then `O=C(O)CC/C=C\C[C@@H]1[C@@H](CNS(=O)(=O)c2ccc(F)cc2)CC[C@@H]1F`, with 0.65 µM; and `Cc1ccc(S(=O)(=O)NC[C@H]2CC[C@@H](F)[C@@H]2C/C=C\CCC(=O)O)cc1`, with 1.9 µM.
Same read-out and setting: then `O=C(O)COCCCC[C@H]1[C@H](F)CC[C@@H]1NS(=O)(=O)c1ccc(F)cc1`, with 1.8 µM; and `Cc1ccc(S(=O)(=O)N[C@H]2CC[C@@H](F)[C@@H]2C/C=C\CCCC(=O)O)cc1`, with 0.26 µM; and `Cc1ccc(S(=O)(=O)N[C@H]2CCC=C2C/C=C\CCC(=O)O)cc1`, with 1.8 µM.
Same read-out and setting: then `O=C(O)COCCCC[C@@H]1[C@@H](CNS(=O)(=O)c2ccc(F)cc2)CC[C@H]1F`, with 0.65 µM.
In experiment [1], `O=C(O)CCC/C=C\CC1=CCC[C@@H]1NS(=O)(=O)c1ccc(F)cc1` returned an IC50 of 4.4 µM.
`Cc1ccc(S(=O)(=O)N[C@H]2CC[C@@H](F)[C@@H]2C/C=C\CCC(=O)O)cc1` had an IC50 in experiment [1] of 1.9 µM. This IC50 lies about 2.3-fold lower than the previous one.
Same read-out and setting: in the case of `Cc1ccc(S(=O)(=O)N[C@H]2CCC=C2CCCCOCC(=O)O)cc1` it was 1.9 µM.
Same read-out and setting: then `O=C(O)CC/C=C\C[C@@H]1[C@@H](CNS(=O)(=O)c2ccc(Cl)cc2)CC[C@H]1F`, with 1.8 µM; and `O=C(O)CCC/C=C\CC1=CCC[C@@H]1NS(=O)(=O)c1ccccc1`, with 2.3 µM; and `O=C(O)CCC/C=C\C[C@H]1[C@H](F)CC[C@@H]1NS(=O)(=O)c1ccc(Cl)cc1`, with 0.07 µM.
On the same count and under the same terms, in the case of `O=C(O)CC/C=C\CC1=CCC[C@@H]1NS(=O)(=O)c1ccccc1` it was 2.2 µM.
